Assay results reported in BindingDB's records for doi:10.1021/acs.jmedchem.0c00249 (China Pharmaceutical University, 2020).

Legend:
[1] = Inhibition of SHP2 E76K mutant in splenocytes derived from JMML patient assessed as reduction in cell proliferation in presence of GM-CSF
[2] = Inhibition of SHP2 E76K mutant in splenocytes derived from JMML patient assessed as reduction in GM-CSF induced colony formation of myeloid blast cells measured after 14 days

**Q.** For `Cc1cc(C)c2[nH]c3nc(SCC(=O)Nc4cccc5ccccc45)nnc3c2c1`, which IC50 [1] is on record?
**A.** The IC50 was 3.09 µM.

**Q.** What about the IC50 [2] of the same compound?
**A.** Its IC50 is 7.24 µM.
